Source: patent US20170367390A1, “USE OF ELLAGIC ACID DIHYDRATE IN FOOD PRODUCTS AND NUTRACEUTICALS” (HALO LIFE SCIENCE, LLC, priority 2014, published 2017)
“Also recorded” adds a separate entry of the source.

Tests used:
[1] = tested on: MEF cells; assay: Glucose uptake, 2-NBDG labeling, high-content imaging (Operetta), MEFs; type: cell-based, mouse
Experimental: (§1) Increased glucose uptake was indicated as increasing signal of 2-NBDG ([…]) in cells. Glucose uptake assays were carried out in a final incubation volume of 50 μl consisting of, 2-NBDG), (100 μM) in 1× Phosphate Buffered Saline w/Ca+, Mg+ (PBS++). The same buffer was used for washing cells. Insulin was used as a positive control. All testing compounds were prepared in 10% DMSO and diluted 1:100 for a final concentration of 0.1% DMSO (vehicle). Cells were culture to 70-90% confluence and then washed twice with PBS++. Cells were incubated for 30 minutes at 37° C. in PBS++. Nuclear stain, HCS CellMask stain (blue, Invitrogen), and/or testing compounds (ellagic acid dihydrate, insulin, or vehicle) were added. Cells were incubated for 30 min at 37° C. Cells were washed twice with PBS++ and incubated with 2-NBDG for 10 minutes. Cells were washed thrice with PBS++ and then imaged in PBS++. Alternatively, the final PBS wash was removed and cells were incubated with Accutase (Invitrogen) for 10 min at 37° C., neutralized with 10% FBS in 1×PBS, and analyzed by flow cytometry. An additional experiment was performed to measure glucose uptake in C2Cl2 cells exposed to metformin, insulin and ellagic acid dihydrate 2 (batch 2). FIG. 5C. Glucose uptake in ellagic acid dihydrate treated cell culture was measured and compared to glucose uptake under insulin or ellagic acid treatment. […] Flow cytometry results were run in triplicate with 1000 cells per batch.

[2] = Activity level in mice; type: in vivo, mouse; conditions: mice, Applicant's observation
Text: Activity levels in mice treated with ellagic acid dihydrate may be quantified by several procedures, such as those outlined in Turri, M. et al.; QTL Analysis Identifies Multiple Behavioral Dimensions in Ethological Tests of Anxiety in Laboratory Mice; Current Biology; 2001; 11(10): 725-734. Two examples of procedures taught therein follows. Gross Locomotor Activity in Home Cage: Mice are caged singly several days prior to home cage activity monitoring and subsequent testing. Activity in home cages are measured during the first 2 hours of the dark cycle on two consecutive days. Two infrared photo emitter-detector pairs, located outside the clear plastic home cage that divide the cage into three equal areas, are used to record gross locomotor activity on the floor of the home cage as the animal breaks the photo beams. The beam-break activity score consists of the square root of the number of beam breaks for each detector summed across the two test days. Magnitude of Activity in Home Cage: Mice are caged singly several days prior to home cage activity monitoring and subsequent testing. Activity in home cages are measured during the first 2 hours of the dark cycle on two consecutive days. An infrared motion detector located above the top of the home cage is employed to converts all motion sensed within the home cage into arbitrary units, based on the magnitude of activity detected.

[3] = Weight loss and blood glucose in female SWV mice with STZ induced diabetes, 30 days gavage; type: in vivo, mouse; conditions: thirty days
Experimental: Weight loss and blood glucose in diabetes induced mice treated with ellagic acid was determined and weight loss and blood glucose in mice treated with ellagic acid dihydrate may be determined by the following procedures. Induction of Diabetes: Diabetes is induced in mice by intraperitoneal injection with Streptozotocin (STZ 40 mg/kg) daily for five days. The mice are considered hyperglycemic when the glucose level of each dam is above 200 mg/dL. The mice are fasted for 4 hours before STZ injection and glucose measurement. Treatment: The mice are treated daily for thirty days with ellagic acid or control in the form of a supplemental pill homogenized and suspended in 25% water solution of Cremophor EL. The mice are treated for one month via gavage using the human equivalent dose of 122.4 mg pill/kg of subject (40.6 mg ellagic acid/kg of the subject), the human equivalent does of 40.6 mg ellagic acid/kg of the subject using 98% pure ellagic acid, or control vehicle (25% water solution of Cremophor EL). The human equivalent dose is calculated as described in Example 8. Treatments would start two weeks after the last STZ injection in which hyperglycemia is confirmed in the diabetic mice. The mice would be weighed daily and glucose levels would be measured in fasted animals every five days.

[4] = tested on: AKT; assay: AKT:Phos AKT ratio by immunocytochemistry, high-content imaging in C2C12; type: cell-based, mouse; conditions: serum starved C2C12, 30 minutes; 4 nM-4 μM for insulin and ellagic acid dihydrate
Experimental: Stimulation of AKT pathways and MAPK pathways in ellagic acid dihydrate, metformin, and insulin treated cell cultures was performed. Insulin stimulates glucose uptake into cells by increasing GLUT4 activation, and AKT, specifically phos-AKT, signaling alters GLUT4 translocation. […] Cellular assays were performed using mouse myoblast C2C12 cells. […] Serum starved cells (1 hr) were treated for 30 minutes with each of the tested compounds.

[5] = tested on: p44/42 MAPK; assay: p44/42 MAPK:Phos p44/42 MAPK ratio by immunocytochemistry, high-content imaging in C2C12; type: cell-based, mouse; conditions: serum starved C2C12, 30 minutes, 0.04 nM
Experimental: Stimulation of AKT pathways and MAPK pathways in ellagic acid dihydrate, metformin, and insulin treated cell cultures was performed. Insulin stimulates glucose uptake into cells by increasing GLUT4 activation, and AKT, specifically phos-AKT, signaling alters GLUT4 translocation. […] Cellular assays were performed using mouse myoblast C2C12 cells. Relative protein levels of AKT:phos AKT and p44/42 MAPK:phos p44/42 MAPK were determined.
Serum starved cells (1 hr) were treated for 30 minutes with each of the tested compounds. Ratios of phosphorylated to non-phosphorylated proteins were determined using immunocytochemistry labeling (anti-AKT, anti-Phos AKT; or anti-p44/42 MAPK, anti-Phos p44/42 MAPK) on a high-content imaging system (Operetta, Perkin Elmer) using the fluorescent signal of anti-rabbit Alexa 647. Increased phosphorylation is indicated as decrease in signal of AKT:Phos AKT ratio (log 2 scale) and p44/42 MAPK:Phos p44/42 MAPK ratio (log 2 scale) relative to vehicle treated cells.

[6] = tested on: mouse myoblast C2C12 cells; assay: Glucose uptake, 2-NBDG labeling, flow cytometry, C2C12; type: cell-based
Experimental: Cellular assays were performed using mouse myoblast C2C12 cells and MEF cells. […] Increased glucose uptake was indicated as increasing signal of 2-NBDG ([…]) in cells. Glucose uptake assays were carried out in a final incubation volume of 50 μl consisting of, 2-NBDG), (100 μM) in 1× Phosphate Buffered Saline w/Ca+, Mg+ (PBS++). The same buffer was used for washing cells. Insulin was used as a positive control. All testing compounds were prepared in 10% DMSO and diluted 1:100 for a final concentration of 0.1% DMSO (vehicle). Cells were culture to 70-90% confluence and then washed twice with PBS++. Cells were incubated for 30 minutes at 37° C. in PBS++. Nuclear stain, HCS CellMask stain (blue, Invitrogen), and/or testing compounds (ellagic acid dihydrate, insulin, or vehicle) were added. Cells were incubated for 30 min at 37° C. Cells were washed twice with PBS++ and incubated with 2-NBDG for 10 minutes. Cells were washed thrice with PBS++ and then imaged in PBS++. Alternatively, the final PBS wash was removed and cells were incubated with Accutase (Invitrogen) for 10 min at 37° C., neutralized with 10% FBS in 1×PBS, and analyzed by flow cytometry. An additional experiment was performed to measure glucose uptake in C2Cl2 cells exposed to metformin, insulin and ellagic acid dihydrate 2 (batch 2). FIG. 5C.

[7] = tested on: MEF cells; assay: Glucose uptake, 2-NBDG labeling, flow cytometry, MEFs; type: cell-based, mouse; conditions: flow cytometry
Experimental: as §1, with “Cellular assays were performed using mouse myoblast C2C12 cells and MEF cells. […] Increased” for “Increased”

[8] = tested on: GLUT4-GFP; assay: Localization of glucose transporter GLUT4-GFP, time-lapse confocal microscopy in C2C12; type: cell-based, mouse; conditions: C2C12, 4000 nM exposure
Experimental: Induction of glucose transporter, GLUT-4, in ellagic acid dihydrate treated cell cultures was studied. Cellular assays were performed using mouse myoblast C2C12 cells. The cells were infected with a fusion glucose transporter 4 green fluorescent protein (GLUT4-GFP). This protein allows the visualization of GLUT4 by imaging the GFP under fluorescent time-lapse microscopy. Frames were compiled to produce time-lapse images of cellular changes with no treatment or treatment with insulin. The localization of glucose transporter (GLUT4-GFP) was performed in final incubation volume of 505 μL, consisting of 500 μl of Hank's Buffer (Invitrogen) and 5 μl of tested compounds. Insulin was used as positive controls and vehicle (0.1% DMSO) as the negative control. All test compounds were prepared in 10% DMSO and diluted 1:100 for a final concentration of 0.1% DMSO (vehicle). The cells were rinsed in Hank's Buffer thrice and then incubated in Hank's Buffer at 37° C. for one hour. The test compounds were added (ellagic acid dihydrate, insulin, or vehicle) and the cells were imaged using laser-confocal microscopy (Leica TCS SP5 X) with FITC fluorescent filters to determine changes in GLUT4-GFP localization. Time-lapse images (TIF) were collected and post-processed using Image-J (NIH) for video construction.

Molecule	dose effect for increasing glucose uptake [1]	activity levels [2]	mean glucose level values, treated versus control mice ([3]; STZ diabetic mice)	average loss of body weight ([3]; female SWV mice with STZ induced diabetes, human equivalent dose (40.6 mg ellagic acid/kg), gavage daily, control lost 2.2%)	AKT:Phos AKT ratio (log 2 scale) relative to vehicle treated cells [4]	p44/42 MAPK:Phos p44/42 MAPK ratio relative to vehicle [5]	dose effect for increasing glucose uptake ([6]; C2C12, flow cytometry, 2-NBDG)	glucose uptake (2-NBDG signal) relative to vehicle ([6]; C2C12, flow cytometry, vehicle 0.1% DMSO)	increase in glucose uptake in myoblasts relative to fibroblasts ([6]; C2C12 myoblasts versus MEF fibroblasts)	glucose uptake (2-NBDG signal) ([1]; versus vehicle (Neg, 0.1% DMSO))	increased glucose uptake (percent change relative to vehicle) ([7]; 400 nM exposure, fibroblasts (MEFs))	dose effect for increasing glucose uptake ([7]; MEFs, 2-NBDG)	glucose uptake (2-NBDG signal) relative to vehicle ([7]; MEFs, vehicle 0.1% DMSO)	p44/42 MAPK:Phos p44/42 MAPK ratio relative to vehicle ([5]; 400 nM)	GLUT4-GFP localization [8]	ruffling of filopodia at the surface of the cell [8]
O=c1oc2c(O)c(O)cc3c(=O)oc4c(O)c(O)cc1c4c23 [ellagic acid]	little to no glucose uptake per unit dose; also recorded: no such dose effect was seen	increased activity levels	no significant differences between the mean glucose level values	11.7%												
CN(C)C(=N)N=C(N)N [metformin]					increase in AKT relative to phosphorylation of AKT	increased the ratio of p44/42 MAPK										
insulin [reference compound]	dose effect for increasing glucose uptake				−0.5		dose effect for increasing glucose uptake	significant increase in glucose uptake relative to the vehicle	~4 ×	showed an increase in glucose uptake	32%	dose effect for increasing glucose uptake	significant increase in glucose uptake relative to the vehicle	increase in p44/42 MAPK	decrease in GLUT4-GFP around the cell nucleus and a parallel increase of movement at the membrane	rapid production of numerous projections (ruffling of filopodia) at the surface of the cell
